Results from ChEMBL document CHEMBL1781877, “Synthesis and evaluation of new carbonic anhydrase inhibitors” (2011).

Tested on: Mus musculus
Test: Antihypoxic activity in fasted Kunming mouse assessed as survival time of mouse under hypoxic condition at 80 mg/kg administered for 5 days (reference value: 2199 +/-217 secs)
Assay type: functional

SMILES | Time
Cc1ccc(S(=O)(=O)N(Cc2ccccc2)c2nnc(S(N)(=O)=O)s2)cc1 | 2582 s
CCCN(c1nnc(S(N)(=O)=O)s1)S(=O)(=O)c1ccccc1 | 3135 s
Cc1ccc(S(=O)(=O)N(Cc2ccc(F)cc2)c2nnc(S(N)(=O)=O)s2)cc1 | 2860 s
CC(=O)Nc1nnc(S(N)(=O)=O)s1 [ACETAZOLAMIDE] | 2726 s
Cc1ccc(S(=O)(=O)N(c2nnc(S(N)(=O)=O)s2)C(C)C)cc1 | 2426 s
Cc1ccc(CN(c2nnc(S(N)(=O)=O)s2)S(=O)(=O)c2ccc(C)cc2)cc1 | 2512 s
Cc1ccc(S(=O)(=O)N(CC(C)C)c2nnc(S(N)(=O)=O)s2)cc1 | 3486 s
Cc1ccc(S(=O)(=O)N(CCc2ccccc2)c2nnc(S(N)(=O)=O)s2)cc1 | 2441 s
CCCCN(c1nnc(S(N)(=O)=O)s1)S(=O)(=O)c1ccccc1 | 2977 s
CCN(c1nnc(S(N)(=O)=O)s1)S(=O)(=O)c1ccccc1 | 2716 s
CCCCCN(c1nnc(S(N)(=O)=O)s1)S(=O)(=O)c1ccccc1 | 2716 s
